Toxic doses and inconclusive results are not listed. The calls were made as follows: active = survival T/C of 150% or more; inactive = T/C below 125% in these data. Residues, ends and D or L forms follow the SMILES beside them. *: point of attachment. Trt = c1ccc(C(c2ccccc2)(c2ccccc2)*)cc1; Cbz = O=C(OCc1ccccc1)*
Tested on: B6C3F1 mice, Lewis lung carcinoma iv, survival T/C
Assay: NCI In Vivo Anticancer Drug Screen. Data for tumor model Lewis Lung Carcinoma (intravenous) in B6C3F1 mice
Conditions: endpoint: median survival time, schedule: Q01DX009 (ip), higher = longer survival
Method in brief: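 Mice carrying transplanted tumors received test compound; survival in the treated group was divided by that of the vehicle-treated control group to give the T/C value.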

[1] = dose: 12.5 mg/kg/injection, vehicle: saline with Tween-80
[2] = dose: 25.0 mg/kg/injection, vehicle: saline with Tween-80
[3] = dose: 50.0 mg/kg/injection, vehicle: saline with Tween-80
[4] = dose: 100.0 mg/kg/injection, vehicle: saline with Tween-80

Measured: T/C

O=[N+]([O-])c1ccc(N2CCOCC2)c2c1no[n+]2[O-]
inactive: dose: 6.25 mg/kg/injection, vehicle: saline with Tween-80 118 % of control | [1] 102 % of control | [2] 111 % of control | [3] 111 % of control | [4] 98 % of control

CC(=O)O[C@@]1(C)[C@@H](C)C(=O)O[C@@H]2CCN3CC=C(COC(=O)[C@]1(C)O)[C@H]23
active: [4] 285 % of control
inactive: [2] 110 % of control | [3] 113 % of control

COC(=O)C(CSC(c1ccccc1)(c1ccccc1)c1ccccc1)NC(=O)C(CC(N)=O)NC(=O)OCc1ccccc1 (stereo not drawn) (Cbz-Asn-Cys(Trt)-OMe; configuration not given here)
inactive: dose: 12.5 mg/kg/injection, vehicle: distilled water + Tween-80 97 % of control | dose: 25.0 mg/kg/injection, vehicle: distilled water + Tween-80 103 % of control | dose: 50.0 mg/kg/injection, vehicle: distilled water + Tween-80 103 % of control | dose: 100.0 mg/kg/injection, vehicle: distilled water + Tween-80 98 % of control | dose: 200.0 mg/kg/injection, vehicle: distilled water + Tween-80 97 % of control | dose: 400.0 mg/kg/injection, vehicle: distilled water + Tween-80 98 % of control

COC1CC(C)C(OC)C2=CC(=O)C=C(NC(=O)/C(C)=C/C=C\C(C)C(OC(N)=O)/C(C)=C\C(C)C1OC)C2=O (configuration not stated)
inactive: dose: 5.0 mg/kg/injection, vehicle: saline + Tween-80 + alcohol 99 % of control | dose: 10.0 mg/kg/injection, vehicle: saline + Tween-80 + alcohol 112 % of control

COc1ccc(/C=C/C(=O)c2cc(C(=O)O)c(OC)cc2OC)cc1OC
inactive: dose: 12.5 mg/kg/injection, vehicle: suspension in saline 98 % of control | dose: 25.0 mg/kg/injection, vehicle: suspension in saline 104 % of control | dose: 50.0 mg/kg/injection, vehicle: suspension in saline 98 % of control | dose: 100.0 mg/kg/injection, vehicle: suspension in saline 90 % of control | dose: 200.0 mg/kg/injection, vehicle: suspension in saline 95 % of control

CN(C)N=Nc1cccc(C(N)=O)c1
inactive: dose: 10.0 mg/kg/injection, vehicle: Klucel (hydroxypropylcellulose) (HPC) 114 % of control | dose: 20.0 mg/kg/injection, vehicle: Klucel (hydroxypropylcellulose) (HPC) 115 % of control

O=C1c2ccccc2C(=O)c2c3c(cc(NCCNCCO)c21)N(CCO)CCN3
inactive: dose: 12.5 mg/kg/injection, vehicle: DMSO 101 % of control | dose: 25.0 mg/kg/injection, vehicle: DMSO 95 % of control | dose: 50.0 mg/kg/injection, vehicle: DMSO 104 % of control | dose: 100.0 mg/kg/injection, vehicle: DMSO 101 % of control | dose: 200.0 mg/kg/injection, vehicle: DMSO 96 % of control

C[C@@]1(CO)[C@H](O)CC[C@@]2(C)[C@H]1CC[C@H]1C[C@@H]3C[C@@]12CC[C@@]3(O)COC(=O)CN
inactive: dose: 0.2 mg/kg/injection, vehicle: saline + alcohol 107 % of control | dose: 0.4 mg/kg/injection, vehicle: saline + alcohol 109 % of control | dose: 0.8 mg/kg/injection, vehicle: saline + alcohol 103 % of control | dose: 1.6 mg/kg/injection, vehicle: saline + alcohol 103 % of control | dose: 12.5 micrograms/kg/injection, vehicle: saline + alcohol 113 % of control | dose: 25.0 micrograms/kg/injection, vehicle: saline + alcohol 120 % of control | dose: 50.0 micrograms/kg/injection, vehicle: saline + alcohol 102 % of control | dose: 100.0 micrograms/kg/injection, vehicle: saline + alcohol 95 % of control | dose: 200.0 micrograms/kg/injection, vehicle: saline + alcohol 98 % of control

CCCCCCOC(CN(C)C)C(Cl)(Cl)Cl (configuration not stated)
inactive: [1] 106 % of control | [2] 96 % of control | [3] 90 % of control | [4] 95 % of control | dose: 200.0 mg/kg/injection, vehicle: saline with Tween-80 95 % of control

Source: PubChem BioAssay AID276 (DTP/NCI, 2004)
